Measurements reported in patent publication US10532995B2, “Substituted pyrazole compounds as serine protease inhibitors” (VERSEON CORPORATION, priority 2015, dated 2020).
Counter-ions that a name gives are not always drawn.

Molecular target: T1, Human thrombin (Homo sapiens, UniProt P00734)
T1 construct: purchased Haematologic Technologies Inc
Experiment: Thrombin protease activity inhibition, chromogenic substrate S-2238
Type: biochemical
Settings: 3 nM thrombin, 125 μM S-2238, 10 min pre-incubation, RT
Description: The thrombin activity reported herein (e.g., Table A) was obtained as follows. […] Thrombin was assayed in buffer containing 0.05 M Tris (pH 7.4), 0.015 M NaCl and 0.01% PEG-8000. The final concentration of enzyme used was 3 nM thrombin. […] All assays were performed in 96-well microtiter plates at room temperature (RT). […] Inhibitor IC50 values were determined by adding test compound as ten point, three-fold serial dilutions in buffer solution, as known in the art. The plate was read at 10 minutes after substrate addition. The IC50 was calculated by plotting the percent (%) inhibition against compound concentration and fitting the data to a constrained four parameter sigmoidal curve, as known in the art.

| IC50 [µM] | Structure (SMILES) |
| --- | --- |
| 1 to 10 | CC1(c2cc(NCc3ccc(Cl)s3)n(C(=O)c3ccsc3)n2)CCNCC1 [Entry 180, N-[(5-chlorothiophen-2-yl)methyl]-3-(4-methylpiperidin-4-yl)-1-(thiophene-3-carbonyl)-1H-pyrazol-5-amine] |
| 0.1 to 1 | O=C(c1ccsc1)n1nc(C2CCOCC2)cc1NCc1ccc(Cl)s1 [Entry 181, N-[(5-chlorothiophen-2-yl)methyl]-3-(oxan-4-yl)-1-(thiophene-3-carbonyl)-1H-pyrazol-5-amine] |
| > 100 | Clc1ccc(CNc2cc(C3CCOCC3)n[nH]2)s1 [Entry 182, N-[(5-chlorothiophen-2-yl)methyl]-3-(oxan-4-yl)-1H-pyrazol-5-amine] |
| < 0.1 | O=C(c1ccsc1)n1nc(C2CCCO2)cc1NCc1ccc(Cl)s1 (centres unmarked) [Entry 183, N-[(5-chlorothiophen-2-yl)methyl]-3-(oxolan-2-yl)-1-(thiophene-3-carbonyl)-1H-pyrazol-5-amine] |
| > 100 | Clc1ccc(CNc2cc(C3CCCO3)n[nH]2)s1 (centres unmarked) [Entry 184, N-[(5-chlorothiophen-2-yl)methyl]-3-(oxolan-2-yl)-1H-pyrazol-5-amine] |
| 0.1 to 1 | O=C(c1ccsc1)n1nc(C2CCCNC2)cc1NCc1ccc(Cl)s1 (centres unmarked) [Entry 185, N-[(5-chlorothiophen-2-yl)methyl]-3-(piperidin-3-yl)-1-(thiophene-3-carbonyl)-1H-pyrazol-5-amine] |
| 1 to 10 | Clc1ccc(CNc2cc(C3CCCNC3)n[nH]2)s1 (centres unmarked) [Entry 186, N-[(5-chlorothiophen-2-yl)methyl]-3-(piperidin-3-yl)-1H-pyrazol-5-amine] |
| > 100 | Clc1ccc(CNc2cc(C3CCCN3)n[nH]2)s1 (centres unmarked) [Entry 189, N-[(5-chlorothiophen-2-yl)methyl]-3-(pyrrolidin-2-yl)-1H-pyrazol-5-amine] |
| 1 to 10 | Clc1ccc(CNc2cc(C3CCNC3)n[nH]2)s1 (centres unmarked) [Entry 190, N-[(5-chlorothiophen-2-yl)methyl]-3-(pyrrolidin-3-yl)-1H-pyrazol-5-amine] |
| > 100 | Clc1ccc(CNc2cc(C3CCN(Cc4ncon4)CC3)n[nH]2)s1 [Entry 191, N-[(5-chlorothiophen-2-yl)methyl]-3-[1-(1,2,4-oxadiazol-3-ylmethyl)piperidin-4-yl]-1H-pyrazol-5-amine] |
| > 100 | Clc1ccc(CNc2cc(C3CCN(Cc4ncno4)CC3)n[nH]2)s1 [Entry 192, N-[(5-chlorothiophen-2-yl)methyl]-3-[1-(1,2,4-oxadiazol-5-ylmethyl)piperidin-4-yl]-1H-pyrazol-5-amine] |
| > 100 | Clc1ccc(CNc2cc(C3CCN(Cc4ncco4)CC3)n[nH]2)s1 [Entry 193, N-[(5-chlorothiophen-2-yl)methyl]-3-[1-(1,3-oxazol-2-ylmethyl)piperidin-4-yl]-1H-pyrazol-5-amine] |
| > 100 | Clc1ccc(CNc2cc(C3CCN(Cc4cnco4)CC3)n[nH]2)s1 [Entry 194, N-[(5-chlorothiophen-2-yl)methyl]-3-[1-(1,3-oxazol-5-ylmethyl)piperidin-4-yl]-1H-pyrazol-5-amine] |
| 1 to 10 | Clc1ccc(CNc2cc(C3CCN(Cc4nnn[nH]4)CC3)n[nH]2)s1 [Entry 195, N-[(5-chlorothiophen-2-yl)methyl]-3-[1-(1H-1,2,3,4-tetrazol-5-ylmethyl)piperidin-4-yl]-1H-pyrazol-5-amine] |
| > 100 | Clc1ccc(CNc2cc(C3CCN(Cc4cnn[nH]4)CC3)n[nH]2)s1 [Entry 196, N-[(5-chlorothiophen-2-yl)methyl]-3-[1-(1H-1,2,3-triazol-5-ylmethyl)piperidin-4-yl]-1H-pyrazol-5-amine] |

More lines, now with the values behind:

| Structure (SMILES) | IC50 [µM] |
| --- | --- |
| CC1(C(=O)n2nc(C3CCCNC3)cc2NCc2ccc(Cl)s2)CCOCC1 (centres unmarked) [Entry 164, N-[(5-chlorothiophen-2-yl)methyl]-1-(4-methyloxane-4-carbonyl)-3-(piperidin-3-yl)-1H-pyrazol-5-amine] | 0.1 to 1 |
| O=C(c1ccoc1)n1nc(C2CCCN2)cc1NCc1ccc(Cl)s1 (centres unmarked) [Entry 167, N-[(5-chlorothiophen-2-yl)methyl]-1-(furan-3-carbonyl)-3-(pyrrolidin-2-yl)-1H-pyrazol-5-amine] | < 0.1 |
| O=C(N1CCOCC1)N1CCC(c2cc(NCc3ccc(Cl)s3)n(C(=O)N3CCOCC3)n2)CC1 [Entry 168, N-[(5-chlorothiophen-2-yl)methyl]-1-(morpholine-4-carbonyl)-3-[1-(morpholine-4-carbonyl)piperidin-4-yl]-1H-pyrazol-5-amine] | 1 to 10 |
| O=C(C1CCCCC1)n1nc(C2CCNCC2)cc1NCc1ccc(Cl)s1 [Entry 169, N-[(5-chlorothiophen-2-yl)methyl]-1-cyclohexanecarbonyl-3-(piperidin-4-yl)-1H-pyrazol-5-amine hydrochloride] | > 100 |
| O=C(C1CCCC1)n1nc(C2CCNCC2)cc1NCc1ccc(Cl)s1 [Entry 170, N-[(5-chlorothiophen-2-yl)methyl]-1-cyclopentanecarbonyl-3-(piperidin-4-yl)-1H-pyrazol-5-amine hydrochloride] | > 100 |
| CS(=O)(=O)N1CCCC(c2cc(NCc3ccc(Cl)s3)[nH]n2)CC1 (centres unmarked) [Entry 171, N-[(5-chlorothiophen-2-yl)methyl]-3-(1-methanesulfonylazepan-4-yl)-1H-pyrazol-5-amine] | > 100 |
| CS(=O)(=O)N1CC(c2cc(NCc3ccc(Cl)s3)[nH]n2)C1 [Entry 172, N-[(5-chlorothiophen-2-yl)methyl]-3-(1-methanesulfonylazetidin-3-yl)-1H-pyrazol-5-amine] | > 100 |
| CS(=O)(=O)N1CCC(c2cc(NCc3ccc(Cl)s3)[nH]n2)CC1 [Entry 173, N-[(5-chlorothiophen-2-yl)methyl]-3-(1-methanesulfonylpiperidin-4-yl)-1H-pyrazol-5-amine] | > 100 |
| CS(=O)(=O)N1CCCC1c1cc(NCc2ccc(Cl)s2)[nH]n1 (centres unmarked) [Entry 174, N-[(5-chlorothiophen-2-yl)methyl]-3-(1-methanesulfonylpyrrolidin-2-yl)-1H-pyrazol-5-amine] | > 100 |
| CS(=O)(=O)N1CCC(c2cc(NCc3ccc(Cl)s3)[nH]n2)C1 (centres unmarked) [Entry 175, N-[(5-chlorothiophen-2-yl)methyl]-3-(1-methanesulfonylpyrrolidin-3-yl)-1H-pyrazol-5-amine] | > 100 |
| FC(F)(F)c1cccc(CN2CCC(c3cc(NCc4ccc(Cl)s4)[nH]n3)CC2)n1 [Entry 176, N-[(5-chlorothiophen-2-yl)methyl]-3-(1-[6-(trifluoromethyl)pyridin-2-yl]methylpiperidin-4-yl)-1H-pyrazol-5-amine] | > 100 |
| CC1(c2cc(NCc3ccc(Cl)s3)n(C(=O)c3ccsc3)n2)CCCN1 (centres unmarked) [Entry 177, N-[(5-chlorothiophen-2-yl)methyl]-3-(2-methylpyrrolidin-2-yl)-1-(thiophene-3-carbonyl)-1H-pyrazol-5-amine; formic acid] | < 0.1 |
| CC1(c2cc(NCc3ccc(Cl)s3)n(C(=O)c3ccsc3)n2)CCCNC1 (centres unmarked) [Entry 178, N-[(5-chlorothiophen-2-yl)methyl]-3-(3-methylpiperidin-3-yl)-1-(thiophene-3-carbonyl)-1H-pyrazol-5-amine] | 0.1 to 1 |
| CS(=O)(=O)N1CCNC(c2cc(NCc3ccc(Cl)s3)[nH]n2)C1 (centres unmarked) [Entry 179, N-[(5-chlorothiophen-2-yl)methyl]-3-(4-methanesulfonylpiperazin-2-yl)-1H-pyrazol-5-amine] | > 100 |
